Among the data in ChEMBL document CHEMBL5303762, “Data for DCP probe BI-8668” (2023) are residual activity values, retold here.

The target of experiment [1] is Muscarinic acetylcholine receptor M3 (Homo sapiens) (UniProt P20309). In words: M3/H Eurofins SafetyScreen44 (BI). Conditions: Compound concentration 10.0 uM.
Experiment [2] deals with D(1A) dopamine receptor (Homo sapiens) (UniProt P21728). The experiment is described as follows: D1/H Eurofins SafetyScreen44 (BI). Conditions: filed as antagonist, Compound concentration 10.0 uM.
The target of experiment [3] is Mu-type opioid receptor (Homo sapiens) (UniProt P35372). The experiment is described as follows: MU/H Eurofins SafetyScreen44 (BI). To be noted: Compound concentration 10.0 uM.
Experiment [4] addresses Vasopressin V1a receptor (Homo sapiens) (UniProt P37288). In words: V1A/HUM Eurofins SafetyScreen44 (BI). To be noted: Compound concentration 10.0 uM.
In experiment [5] the target is Tyrosine-protein kinase Lck (Homo sapiens) (UniProt P06239). The experiment is described as follows: LCK_CE Eurofins SafetyScreen44 (BI). Conditions: Compound concentration 10.0 uM.
Sequence of Tyrosine-protein kinase Lck (Homo sapiens) (P06239 2-509 limits assumed): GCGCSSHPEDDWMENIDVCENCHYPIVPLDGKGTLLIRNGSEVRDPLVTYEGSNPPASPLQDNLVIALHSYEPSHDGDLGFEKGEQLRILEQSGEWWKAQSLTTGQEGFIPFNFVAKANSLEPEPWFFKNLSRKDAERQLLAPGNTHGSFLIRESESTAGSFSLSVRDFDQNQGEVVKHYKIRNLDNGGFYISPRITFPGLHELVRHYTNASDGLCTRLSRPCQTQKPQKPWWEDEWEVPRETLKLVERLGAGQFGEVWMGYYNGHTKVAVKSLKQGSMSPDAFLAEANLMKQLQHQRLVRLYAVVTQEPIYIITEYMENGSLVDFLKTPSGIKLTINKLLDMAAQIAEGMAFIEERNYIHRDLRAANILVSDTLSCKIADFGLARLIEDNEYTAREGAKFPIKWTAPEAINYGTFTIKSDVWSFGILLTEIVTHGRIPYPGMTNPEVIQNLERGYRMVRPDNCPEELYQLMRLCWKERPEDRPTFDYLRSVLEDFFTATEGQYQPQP
In experiment [6] the target is T1, 5-hydroxytryptamine receptor 1A (Homo sapiens) (UniProt P08908).
T1 sequence (whole entry): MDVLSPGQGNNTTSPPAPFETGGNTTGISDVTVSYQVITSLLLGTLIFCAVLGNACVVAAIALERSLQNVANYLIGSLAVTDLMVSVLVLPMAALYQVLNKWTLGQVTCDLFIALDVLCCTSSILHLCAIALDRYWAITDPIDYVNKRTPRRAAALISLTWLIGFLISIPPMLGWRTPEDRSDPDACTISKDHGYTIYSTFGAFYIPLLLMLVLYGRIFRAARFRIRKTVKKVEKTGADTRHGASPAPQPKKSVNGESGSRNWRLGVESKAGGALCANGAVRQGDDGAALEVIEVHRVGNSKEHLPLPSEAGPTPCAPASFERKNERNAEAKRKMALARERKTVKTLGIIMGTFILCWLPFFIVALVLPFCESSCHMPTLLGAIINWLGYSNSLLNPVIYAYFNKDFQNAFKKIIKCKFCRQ
The experiment is described as follows: 5HT1A/H Eurofins SafetyScreen44 (BI). Conditions: Compound concentration 10.0 uM.

Experiment [7] concerns the target Delta-type opioid receptor (Homo sapiens) (UniProt P41143). The experiment is described as follows: DELTA2/H Eurofins SafetyScreen44 (BI). To be noted: Compound concentration 10.0 uM.
For experiment [8], the target named is Neuronal acetylcholine receptor; alpha4/beta2 (Homo sapiens) (UniProt P17787+P43681). In words: N_NEURO_A4B2 Eurofins SafetyScreen44 (BI). The experiment is classed as protein-complex assay. To be noted: filed as agonist, Compound concentration 10.0 uM.
In experiment [9] the target is T2, Alpha-2A adrenergic receptor (Homo sapiens) (UniProt P08913).
T2 sequence (whole entry): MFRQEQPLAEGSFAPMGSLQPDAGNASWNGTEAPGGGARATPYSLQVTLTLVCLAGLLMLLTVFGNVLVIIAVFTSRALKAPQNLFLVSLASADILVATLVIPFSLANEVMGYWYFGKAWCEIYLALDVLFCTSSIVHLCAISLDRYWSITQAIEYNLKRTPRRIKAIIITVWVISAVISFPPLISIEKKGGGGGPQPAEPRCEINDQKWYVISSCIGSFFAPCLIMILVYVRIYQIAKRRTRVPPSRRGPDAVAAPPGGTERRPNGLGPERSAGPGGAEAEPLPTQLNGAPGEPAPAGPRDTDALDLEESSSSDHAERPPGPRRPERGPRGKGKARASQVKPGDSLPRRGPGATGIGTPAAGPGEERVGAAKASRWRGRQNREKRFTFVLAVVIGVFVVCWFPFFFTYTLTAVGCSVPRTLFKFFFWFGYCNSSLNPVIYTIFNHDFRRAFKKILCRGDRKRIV
In words: ALPHA2A/HU Eurofins SafetyScreen44 (BI). Conditions: Compound concentration 10.0 uM.

The target in experiment [10] is Beta-1 adrenergic receptor (Homo sapiens) (UniProt P08588). The experiment is described as follows: BETA1/HUM Eurofins SafetyScreen44 (BI). To be noted: Compound concentration 10.0 uM.
In experiment [11] the target is Histamine H1 receptor (Homo sapiens) (UniProt P35367). In words: H1/PYRIL/HS Eurofins SafetyScreen44 (BI). To be noted: Compound concentration 10.0 uM.
Sequence of Histamine H1 receptor (Homo sapiens) (P35367 whole entry): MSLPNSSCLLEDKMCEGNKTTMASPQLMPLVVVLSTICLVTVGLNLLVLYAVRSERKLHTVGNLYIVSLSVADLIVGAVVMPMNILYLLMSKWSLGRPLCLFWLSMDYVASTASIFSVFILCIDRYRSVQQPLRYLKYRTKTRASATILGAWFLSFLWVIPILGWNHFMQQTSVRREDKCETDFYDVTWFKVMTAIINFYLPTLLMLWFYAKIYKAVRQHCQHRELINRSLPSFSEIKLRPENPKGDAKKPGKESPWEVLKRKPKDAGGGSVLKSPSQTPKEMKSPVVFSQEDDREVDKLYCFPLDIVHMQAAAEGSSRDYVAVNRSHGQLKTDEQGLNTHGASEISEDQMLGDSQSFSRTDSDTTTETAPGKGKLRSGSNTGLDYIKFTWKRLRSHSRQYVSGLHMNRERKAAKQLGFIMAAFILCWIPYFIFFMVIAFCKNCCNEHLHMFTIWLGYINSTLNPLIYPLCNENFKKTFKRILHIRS
In experiment [12] the target is Cholecystokinin receptor type A (Homo sapiens) (UniProt P32238). In words: CCKA/H Eurofins SafetyScreen44 (BI). Conditions: Compound concentration 10.0 uM.
Experiment [13] addresses T3, Alpha-1A adrenergic receptor (Homo sapiens) (UniProt P35348).
T3 sequence (whole entry): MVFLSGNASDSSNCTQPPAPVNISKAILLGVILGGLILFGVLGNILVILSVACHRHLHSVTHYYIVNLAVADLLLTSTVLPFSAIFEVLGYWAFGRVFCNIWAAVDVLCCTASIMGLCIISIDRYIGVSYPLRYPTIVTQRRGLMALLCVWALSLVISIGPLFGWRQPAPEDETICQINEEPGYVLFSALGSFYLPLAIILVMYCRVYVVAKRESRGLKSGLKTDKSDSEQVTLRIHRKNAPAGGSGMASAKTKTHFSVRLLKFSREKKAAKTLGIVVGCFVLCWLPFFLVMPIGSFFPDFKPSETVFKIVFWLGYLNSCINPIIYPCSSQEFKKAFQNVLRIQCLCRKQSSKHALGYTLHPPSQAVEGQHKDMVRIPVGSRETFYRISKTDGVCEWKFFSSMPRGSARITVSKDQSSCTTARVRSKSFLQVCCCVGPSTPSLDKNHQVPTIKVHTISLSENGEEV
In words: ALPHA1AH_ANTAG Eurofins SafetyScreen44 (BI). To be noted: filed as antagonist, Compound concentration 10.0 uM.

Experiment [14] has as its target T4, 5-hydroxytryptamine receptor 3A (Homo sapiens) (UniProt P46098).
T4 sequence (whole entry): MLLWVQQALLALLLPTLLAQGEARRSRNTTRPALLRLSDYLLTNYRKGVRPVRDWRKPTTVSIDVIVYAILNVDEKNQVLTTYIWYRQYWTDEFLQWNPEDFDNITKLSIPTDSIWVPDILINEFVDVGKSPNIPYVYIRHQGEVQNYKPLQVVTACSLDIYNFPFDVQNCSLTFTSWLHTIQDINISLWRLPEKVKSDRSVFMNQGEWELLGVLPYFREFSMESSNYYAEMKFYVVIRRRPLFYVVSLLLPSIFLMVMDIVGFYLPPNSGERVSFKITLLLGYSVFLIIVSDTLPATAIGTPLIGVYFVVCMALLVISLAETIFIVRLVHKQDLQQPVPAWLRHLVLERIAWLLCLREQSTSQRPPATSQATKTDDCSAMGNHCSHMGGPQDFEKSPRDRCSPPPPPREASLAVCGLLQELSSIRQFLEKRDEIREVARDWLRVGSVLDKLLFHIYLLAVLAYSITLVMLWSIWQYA
The experiment is described as follows: 5HT3/H Eurofins SafetyScreen44 (BI). To be noted: Compound concentration 10.0 uM.

In experiment [15] the target is Histamine H2 receptor (Homo sapiens) (UniProt P25021). In words: H2/APT/HS Eurofins SafetyScreen44 (BI). Conditions: filed as antagonist, Compound concentration 10.0 uM.
Sequence of Histamine H2 receptor (Homo sapiens) (P25021 whole entry): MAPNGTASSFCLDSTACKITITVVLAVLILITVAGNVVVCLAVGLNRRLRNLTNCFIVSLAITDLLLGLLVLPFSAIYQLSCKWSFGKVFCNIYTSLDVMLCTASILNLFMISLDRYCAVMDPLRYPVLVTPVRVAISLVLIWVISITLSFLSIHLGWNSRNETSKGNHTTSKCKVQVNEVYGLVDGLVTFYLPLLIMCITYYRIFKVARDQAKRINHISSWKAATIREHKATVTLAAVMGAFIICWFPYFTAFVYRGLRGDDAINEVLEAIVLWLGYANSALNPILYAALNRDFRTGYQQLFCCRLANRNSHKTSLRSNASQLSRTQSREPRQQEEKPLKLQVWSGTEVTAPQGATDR
Experiment [16] has as its target Sodium-dependent serotonin transporter (Homo sapiens) (UniProt P31645). The experiment is described as follows: SLC6A4/H Eurofins SafetyScreen44 (BI). To be noted: filed as antagonist, Compound concentration 10.0 uM.
Experiment [17] deals with Angiotensin-converting enzyme (Homo sapiens) (UniProt P12821). In words: ACE(HU_AMTCH400) Eurofins SafetyScreen44 (BI).
Sequence of Angiotensin-converting enzyme (Homo sapiens) (P12821 whole entry): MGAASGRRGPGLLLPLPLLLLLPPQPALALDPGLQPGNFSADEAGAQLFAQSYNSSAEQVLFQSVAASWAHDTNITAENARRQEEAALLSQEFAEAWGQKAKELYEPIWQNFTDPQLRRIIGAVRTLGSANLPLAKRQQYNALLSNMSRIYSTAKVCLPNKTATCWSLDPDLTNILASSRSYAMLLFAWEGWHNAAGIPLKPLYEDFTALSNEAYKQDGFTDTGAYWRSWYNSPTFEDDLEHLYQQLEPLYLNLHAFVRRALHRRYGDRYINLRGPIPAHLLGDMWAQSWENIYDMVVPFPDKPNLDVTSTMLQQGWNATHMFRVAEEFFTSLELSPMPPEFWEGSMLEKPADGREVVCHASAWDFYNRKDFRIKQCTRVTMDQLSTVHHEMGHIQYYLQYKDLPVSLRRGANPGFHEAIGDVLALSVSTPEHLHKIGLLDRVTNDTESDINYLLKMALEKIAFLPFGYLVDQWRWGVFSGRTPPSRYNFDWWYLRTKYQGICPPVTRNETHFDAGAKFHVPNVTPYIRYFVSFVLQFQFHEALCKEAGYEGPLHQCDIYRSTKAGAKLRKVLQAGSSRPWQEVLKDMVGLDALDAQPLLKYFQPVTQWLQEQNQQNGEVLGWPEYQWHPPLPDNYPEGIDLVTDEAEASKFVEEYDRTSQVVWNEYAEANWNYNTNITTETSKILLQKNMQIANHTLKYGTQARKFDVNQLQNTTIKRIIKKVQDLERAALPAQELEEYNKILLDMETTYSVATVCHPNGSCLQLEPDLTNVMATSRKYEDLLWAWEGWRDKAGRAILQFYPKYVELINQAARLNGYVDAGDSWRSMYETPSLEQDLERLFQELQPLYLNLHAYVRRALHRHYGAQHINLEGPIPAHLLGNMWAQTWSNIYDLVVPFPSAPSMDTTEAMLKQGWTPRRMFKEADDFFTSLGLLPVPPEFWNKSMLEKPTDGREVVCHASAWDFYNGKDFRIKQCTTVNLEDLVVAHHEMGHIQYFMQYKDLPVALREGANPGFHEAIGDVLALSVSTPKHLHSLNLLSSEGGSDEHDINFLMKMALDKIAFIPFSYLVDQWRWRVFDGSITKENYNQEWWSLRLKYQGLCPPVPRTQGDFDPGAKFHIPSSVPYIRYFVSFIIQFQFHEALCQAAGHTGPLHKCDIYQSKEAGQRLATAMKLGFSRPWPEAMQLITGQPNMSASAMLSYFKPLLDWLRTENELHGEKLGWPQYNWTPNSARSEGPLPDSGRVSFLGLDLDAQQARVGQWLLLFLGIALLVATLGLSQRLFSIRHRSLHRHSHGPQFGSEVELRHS
The target of experiment [18] is 5-hydroxytryptamine receptor 2A (Homo sapiens) (UniProt P28223). The experiment is described as follows: 5HT2AH_AGON Eurofins SafetyScreen44 (BI). Conditions: filed as agonist, Compound concentration 10.0 uM.
Sequence of 5-hydroxytryptamine receptor 2A (Homo sapiens) (P28223 whole entry): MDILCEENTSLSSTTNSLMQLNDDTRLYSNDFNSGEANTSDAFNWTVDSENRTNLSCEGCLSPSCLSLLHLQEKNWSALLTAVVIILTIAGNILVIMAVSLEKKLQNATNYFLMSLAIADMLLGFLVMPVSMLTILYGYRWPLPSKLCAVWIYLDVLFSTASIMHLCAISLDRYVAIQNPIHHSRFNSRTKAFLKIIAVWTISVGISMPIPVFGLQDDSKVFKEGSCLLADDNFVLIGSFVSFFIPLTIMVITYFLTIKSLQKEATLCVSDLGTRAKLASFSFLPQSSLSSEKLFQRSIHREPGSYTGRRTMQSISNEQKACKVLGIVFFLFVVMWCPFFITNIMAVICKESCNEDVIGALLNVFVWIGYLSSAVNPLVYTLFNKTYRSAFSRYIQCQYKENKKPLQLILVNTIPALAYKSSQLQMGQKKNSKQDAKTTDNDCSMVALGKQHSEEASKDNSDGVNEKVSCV

Sequence of Muscarinic acetylcholine receptor M3 (Homo sapiens) (P20309 whole entry, looked up): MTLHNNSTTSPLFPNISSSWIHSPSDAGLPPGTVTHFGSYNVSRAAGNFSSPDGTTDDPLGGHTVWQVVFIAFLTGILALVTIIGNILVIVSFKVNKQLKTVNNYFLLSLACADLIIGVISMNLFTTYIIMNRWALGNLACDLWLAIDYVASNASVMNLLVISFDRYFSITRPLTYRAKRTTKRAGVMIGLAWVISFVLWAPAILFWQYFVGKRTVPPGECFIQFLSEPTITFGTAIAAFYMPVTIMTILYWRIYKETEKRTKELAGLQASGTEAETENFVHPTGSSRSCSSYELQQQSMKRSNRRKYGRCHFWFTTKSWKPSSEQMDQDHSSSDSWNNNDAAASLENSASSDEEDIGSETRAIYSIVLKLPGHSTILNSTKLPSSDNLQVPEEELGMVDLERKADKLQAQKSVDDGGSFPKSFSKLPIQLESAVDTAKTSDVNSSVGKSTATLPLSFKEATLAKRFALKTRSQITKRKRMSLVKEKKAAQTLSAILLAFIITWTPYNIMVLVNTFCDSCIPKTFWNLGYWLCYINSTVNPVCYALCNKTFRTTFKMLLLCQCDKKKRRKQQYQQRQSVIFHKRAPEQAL
Sequence of Sodium-dependent serotonin transporter (Homo sapiens) (P31645 whole entry, looked up): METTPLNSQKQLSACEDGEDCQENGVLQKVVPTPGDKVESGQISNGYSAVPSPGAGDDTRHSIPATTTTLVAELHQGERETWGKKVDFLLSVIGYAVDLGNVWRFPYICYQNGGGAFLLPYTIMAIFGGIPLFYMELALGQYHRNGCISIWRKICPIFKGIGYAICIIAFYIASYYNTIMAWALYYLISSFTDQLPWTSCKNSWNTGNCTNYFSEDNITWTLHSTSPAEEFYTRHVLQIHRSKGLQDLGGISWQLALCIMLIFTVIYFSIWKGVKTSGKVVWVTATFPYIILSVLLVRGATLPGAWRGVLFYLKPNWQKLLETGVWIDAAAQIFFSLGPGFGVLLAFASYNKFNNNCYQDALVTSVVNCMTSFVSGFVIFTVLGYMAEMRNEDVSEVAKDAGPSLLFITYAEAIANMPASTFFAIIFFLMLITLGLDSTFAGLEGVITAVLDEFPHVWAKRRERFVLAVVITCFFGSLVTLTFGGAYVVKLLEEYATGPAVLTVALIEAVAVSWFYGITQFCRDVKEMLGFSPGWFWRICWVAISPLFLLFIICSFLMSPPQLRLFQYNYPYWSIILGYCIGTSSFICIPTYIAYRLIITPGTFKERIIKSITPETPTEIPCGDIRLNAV
Sequence of Delta-type opioid receptor (Homo sapiens) (P41143 whole entry): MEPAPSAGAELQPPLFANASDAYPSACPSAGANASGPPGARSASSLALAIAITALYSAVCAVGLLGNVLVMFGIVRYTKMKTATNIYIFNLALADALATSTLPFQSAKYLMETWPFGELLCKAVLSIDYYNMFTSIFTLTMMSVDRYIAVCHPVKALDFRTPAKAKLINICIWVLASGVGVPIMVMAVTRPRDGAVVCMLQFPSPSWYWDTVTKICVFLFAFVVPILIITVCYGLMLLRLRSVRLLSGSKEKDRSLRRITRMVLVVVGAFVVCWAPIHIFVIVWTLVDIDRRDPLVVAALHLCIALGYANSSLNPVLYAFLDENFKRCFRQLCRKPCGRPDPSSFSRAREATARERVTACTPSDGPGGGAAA

As to `CCn1c(CNC(=O)c2ncc(C)nc2N)[n+](CC)c2ccc(C(=O)N(C)CN(C)C)cc21`, the residual activity in experiment [1] was 35%; in experiment [2] it was 102%; in experiment [3] it was 95%; in experiment [4] it was 107%; in experiment [5], 60%; in experiment [6] it was 111%. The residual activity in experiment [7] is 97%; in experiment [8], 103%; in experiment [9], 97%; in [10], 105%; in experiment [11] it was 94%; in experiment [12] it was 82%. Moreover, the residual activity is 63% in experiment [13]; 99% in experiment [14]; 120% in experiment [15]; 31% in experiment [16]; 39% in [17] (Compound concentration 10.0 uM); 91% in experiment [18].
As to `CCn1c(CNC(=O)c2nc(Cl)cnc2N)[n+](CC)c2ccc(C(=O)N(C)CCN(C)C)cc21`, the residual activity in experiment [1] is 20%; in experiment [2], 103%; in experiment [3], 95%; in experiment [4], 109%; in experiment [5], 95%; in experiment [6], 107%. Further, the residual activity in experiment [7] was 95%; in experiment [8] it was 101%; in experiment [9], 112%; in experiment [10], 97%; in [11], 101%; in experiment [12], 84%. For the same compound, the residual activity in experiment [13] was 45%; in experiment [14] it was 101%; in experiment [15], 117%; in experiment [16] it was 97%; in [17] (Compound concentration 10.0 uM), 55.6%; in experiment [17] (Compound concentration 30.0 uM), 31%. Further, the values for the residual activity in experiment [17] (Compound concentration 100.0 uM) and in [18] were 24% and 97%, respectively.
